Source: the supplement of paper PMC13380429

How the values were obtained:
Details in all cases: 72 h
Calu-3 [1] = experiment: drug sensitivity score (DSS) for viability; higher = more toxic; extreme values may be limits of the assay
HepG2 [2] = experiment: as above
U2OS [3] = experiment: as above
Vero E6 [4] = experiment: as above
Caco-2 [5] = experiment: cell viability relative to DMSO; higher = less toxic
Calu-3 [6] = experiment: as above
HepG2 [7] = experiment: as above
U2OS [8] = experiment: as above
Vero E6 [9] = experiment: as above
Calu-3 [10] = experiment: relative viability EC50 (midpoint between 100% and the lowest measured viability); higher = less toxic
Vero E6 [11] = experiment: as above
Caco-2 [12] = experiment: drug sensitivity score (DSS) for viability; higher = more toxic; extreme values may be limits of the assay
Caco-2 [13] = experiment: relative viability EC50 (midpoint between 100% and the lowest measured viability); higher = less toxic
U2OS [14] = experiment: as above
HepG2 [15] = experiment: as above

CC(O)(CS(=O)(=O)c1ccc(F)cc1)C(=O)Nc1ccc(C#N)c(C(F)(F)F)c1 (configuration not stated) [bicalutamide]
drug sensitivity score (Calu-3 [1]): 0
drug sensitivity score (HepG2 [2]): 0
drug sensitivity score (U2OS [3]): 0
drug sensitivity score (Vero E6 [4]): 0

O=C(/C=C/c1ccc(O)c(O)c1)OCCc1ccccc1 [caffeic-acid-phenethyl-ester]
cell viability (Caco-2 [5]; 1 nM): 92%
cell viability (Caco-2 [5]; 10 nM): 99.6%
cell viability (Caco-2 [5]; 100 nM): 101%
cell viability (Caco-2 [5]; 1000 nM): 88.2%
cell viability (Caco-2 [5]; 10000 nM): 66.9%
cell viability (Calu-3 [6]; 1 nM): 95.4%
cell viability (Calu-3 [6]; 10 nM): 97.4%
cell viability (Calu-3 [6]; 100 nM): 99.1%
cell viability (Calu-3 [6]; 1000 nM): 94.4%
cell viability (Calu-3 [6]; 10000 nM): 90.3%
cell viability (HepG2 [7]; 1 nM): 92%
cell viability (HepG2 [7]; 10 nM): 106%
cell viability (HepG2 [7]; 100 nM): 99.6%
cell viability (HepG2 [7]; 1000 nM): 90.2%
cell viability (HepG2 [7]; 10000 nM): 73.9%
cell viability (U2OS [8]; 1 nM): 98.4%
cell viability (U2OS [8]; 10 nM): 102%
cell viability (U2OS [8]; 100 nM): 98.9%
cell viability (U2OS [8]; 1000 nM): 99.2%
cell viability (U2OS [8]; 10000 nM): 69.9%
cell viability (Vero E6 [9]; 1 nM): 96.9%
cell viability (Vero E6 [9]; 10 nM): 101%
cell viability (Vero E6 [9]; 100 nM): 96.4%
cell viability (Vero E6 [9]; 1000 nM): 96.4%
cell viability (Vero E6 [9]; 10000 nM): 90.6%
relative viability EC50 (Calu-3 [10]): > 10000 nM
relative viability EC50 (Vero E6 [11]): > 10000 nM
drug sensitivity score (Caco-2 [12]): 3.2
drug sensitivity score (Calu-3 [1]): 0
drug sensitivity score (HepG2 [2]): 2.3
drug sensitivity score (U2OS [3]): 1.4
drug sensitivity score (Vero E6 [4]): 0

CN(C)CCCN1c2ccccc2Sc2ccc(Cl)cc21 [chlorpromazine]
cell viability (Caco-2 [5]; 1 nM): 96.3%
cell viability (Caco-2 [5]; 10 nM): 97.3%
cell viability (Caco-2 [5]; 100 nM): 96.5%
cell viability (Caco-2 [5]; 1000 nM): 105%
cell viability (Caco-2 [5]; 10000 nM): 88.9%
cell viability (Calu-3 [6]; 1 nM): 110%
cell viability (Calu-3 [6]; 10 nM): 97%
cell viability (Calu-3 [6]; 100 nM): 109%
cell viability (Calu-3 [6]; 1000 nM): 102%
cell viability (Calu-3 [6]; 10000 nM): 73.8%
cell viability (HepG2 [7]; 1 nM): 96.5%
cell viability (HepG2 [7]; 10 nM): 102%
cell viability (HepG2 [7]; 100 nM): 105%
cell viability (HepG2 [7]; 1000 nM): 91.3%
cell viability (HepG2 [7]; 10000 nM): 52.4%
cell viability (U2OS [8]; 1 nM): 98.9%
cell viability (U2OS [8]; 10 nM): 100%
cell viability (U2OS [8]; 100 nM): 93.6%
cell viability (U2OS [8]; 1000 nM): 102%
cell viability (U2OS [8]; 10000 nM): 86.2%
cell viability (Vero E6 [9]; 1 nM): 98.5%
cell viability (Vero E6 [9]; 10 nM): 98.8%
cell viability (Vero E6 [9]; 100 nM): 97.4%
cell viability (Vero E6 [9]; 1000 nM): 99.6%
cell viability (Vero E6 [9]; 10000 nM): 56.9%
relative viability EC50 (Caco-2 [13]): > 10000 nM
relative viability EC50 (U2OS [14]): > 10000 nM
drug sensitivity score (Caco-2 [12]): 0
drug sensitivity score (Calu-3 [1]): 0.9
drug sensitivity score (HepG2 [2]): 3.9
drug sensitivity score (U2OS [3]): 0.1
drug sensitivity score (Vero E6 [4]): 2.2

CS[C@H]1SC[C@H]2C(=O)N(C)[C@@H](C(C)C)C(=O)OC[C@@H](NC(=O)c3cnc4ccccc4n3)C(=O)N[C@@H](C)C(=O)N(C)[C@@H]1C(=O)N(C)[C@@H](C(C)C)C(=O)OC[C@@H](NC(=O)c1cnc3ccccc3n1)C(=O)N[C@@H](C)C(=O)N2C [echinomycin]
cell viability (Caco-2 [5]; 1 nM): 63.1%
cell viability (Caco-2 [5]; 10 nM): 54.7%
cell viability (Caco-2 [5]; 100 nM): 57.2%
cell viability (Caco-2 [5]; 1000 nM): 63.2%
cell viability (Caco-2 [5]; 10000 nM): 75.9%
cell viability (Calu-3 [6]; 1 nM): 57.6%
cell viability (Calu-3 [6]; 10 nM): 16%
cell viability (Calu-3 [6]; 100 nM): 27.3%
cell viability (Calu-3 [6]; 1000 nM): 35.5%
cell viability (Calu-3 [6]; 10000 nM): 36.2%
cell viability (HepG2 [7]; 1 nM): 77.1%
cell viability (HepG2 [7]; 10 nM): 9.7%
cell viability (HepG2 [7]; 100 nM): 6.7%
cell viability (HepG2 [7]; 1000 nM): 7%
cell viability (HepG2 [7]; 10000 nM): 7.7%
cell viability (U2OS [8]; 1 nM): 54.1%
cell viability (U2OS [8]; 10 nM): 0.5%
cell viability (U2OS [8]; 100 nM): 0.6%
cell viability (U2OS [8]; 1000 nM): 2.3%
cell viability (U2OS [8]; 10000 nM): 1.8%
cell viability (Vero E6 [9]; 1 nM): 104%
cell viability (Vero E6 [9]; 10 nM): 90.4%
cell viability (Vero E6 [9]; 100 nM): 2.1%
cell viability (Vero E6 [9]; 1000 nM): 4.6%
cell viability (Vero E6 [9]; 10000 nM): 1%
relative viability EC50 (Calu-3 [10]): < 1 nM
relative viability EC50 (HepG2 [15]): 1.8 nM
relative viability EC50 (U2OS [14]): 1.1 nM
relative viability EC50 (Vero E6 [11]): 24 nM
drug sensitivity score (Caco-2 [12]): 22.8
drug sensitivity score (Calu-3 [1]): 41.3
drug sensitivity score (HepG2 [2]): 42.9
drug sensitivity score (U2OS [3]): 47.9
drug sensitivity score (Vero E6 [4]): 31.7

C[C@]12CC[C@@H]3c4ccc(O)cc4CC[C@H]3[C@@H]1CCC2=O [estrone]
drug sensitivity score (Calu-3 [1]): 0
drug sensitivity score (HepG2 [2]): 0
drug sensitivity score (U2OS [3]): 0
drug sensitivity score (Vero E6 [4]): 0

COc1cc2ncnc(Nc3ccc(F)c(Cl)c3)c2cc1OCCCN1CCOCC1 [gefitinib]
relative viability EC50 (Calu-3 [10]): 414 nM
drug sensitivity score (Caco-2 [12]): 4.1
drug sensitivity score (Calu-3 [1]): 13.1
drug sensitivity score (HepG2 [2]): 3.9
drug sensitivity score (U2OS [3]): 2.1
drug sensitivity score (Vero E6 [4]): 9.3
